Key:
DCs [1] = assay: Extracellular flux assays on DCs in vitro (ECAR, respiration); assay type: cell-based, mouse
Procedure: (§1) Data represented as mean±std error.
Next, the ability of the F16BP MPs to rescue glycolysis in DCs in the presence of glycolytic inhibitor PFK15 was evaluated using extracellular flux assays. DCs were cultured with either PFK15, F16BP MPs, soluble fructose-6-phosphate (F6P—upstream of PFKFB3) or PFK15+F16BP MPs, or individual components of the F16BP MPs for 2 hr, and extracellular acidification rate (ECAR—rate of glycolysis) measurements were obtained. […] This is important since under conditions of inflammation, DCs need to perform enhanced levels of glycolysis to support the inflammatory protein production.

DCs [2] = assay: DC activation by flow cytometry in vitro; assay type: cell-based, mouse; conditions: in the presence of poly(IC); PFK15 conc.=25 μM
Description: as §1
To test if F16BP MPs can modulate the function of DCs, mRNA-based and peptide-based vaccine F16BP MPs were formulated. These vaccines were generated by intercalating di-phosphorylated melanoma peptide antigen Tyrosine related protein 2 (pTRP2), and poly(IC) and mRNA derived from melanoma cells, which contain several phosphate groups in their backbone (FIG. 12). Since pTRP2p, and poly(IC) have phosphate groups, these molecules can be incorporated into the F16BP MPs using the calcium-phosphate chemistry. The amount of pTRp2, and poly(IC) incorporated within the F16BP MPs was determined to be 78±3.4, and 50.9±7.9 μg, respectively. Next, F16BP MPs intercalated with poly(IC) and pTRP2 were incubated with DCs overnight, and flow cytometry was utilized to test if these particles could activate DCs (FIG. 2I and FIG. 2J).

YUMM1.1 cancer cells = assay: Proliferation assay using MTT, YUMM1.1; assay type: cell-based, mouse; conditions: in vitro
B16F10 cancer cells = assay: Proliferation assay using MTT, B16F10; assay type: cell-based, mouse; conditions: in vitro
B16F10 tumors = assay: B16F10 melanoma model, adoptive transfer of Vacc DCs with PFK15; assay type: in vivo, mouse; conditions: day 16; vs no treatment control
Procedure: To test the versatility of the F16BP-PFK15 system, another aggressive B16F10 melanoma model was chosen (FIG. 4A). In this model, DCs were loaded with F16BP MPs intercalated with mRNA isolated from B16F10 cancer cells, and poly(IC) (Vacc DCs) and adoptively transferred in mice containing B16F10 tumors. This cellular therapy's ability to modulate adaptive immune responses, reduced tumor growth, and improve survival were measured.
To test if the metabolic rescue in DCs can be applied to adoptive cell therapy, adoptive transfer of DC-vaccines was tested in mice (FIG. 16). […] Specifically, 0.75×10^6 B16F10 cells were injected in C57BL/6j immunocompetent mice, and PFK15 was injected every alternate day for the duration of the study (FIG. 16). Moreover, ex vivo DCs loaded with F16BP(mRNA+poly(IC)) (Vacc DCs) or DCs loaded with F16BP MPs were adoptively transferred using retro-orbital injections (RO) on days 6 and 19 (FIG. 15).
To test if the Vacc DCs could modulate the immune responses after their administration, on day 16, spleen, lymph nodes, and tumors were isolated from different conditions and stained for the activation profile of DCs, and T cells. […]
Since Vacc DCs are administered systemically, spleen and cervical lymph nodes were also analysed for the changes in innate and adaptive immune responses (FIG. 19 through FIG. 22).

[3] = DCs cultured 2 hr, vs no treatment control

SMILES: O=C(/C=C/c1ccc2ccccc2n1)c1ccncc1 [PFK15]
- glycolysis (ECAR) (DCs [1]; [3]): lower than no treatment control
- glycolytic capacity (ECAR) (DCs [1]; [3]): lower than no treatment control
- glycolysis (ECAR) (DCs [1]; in the presence of poly(IC)): decreased
- glycolytic capacity (ECAR) (DCs [1]; in the presence of poly(IC)): decreased
- activation of DCs (CD80+CD86+ in CD11c+) (DCs [2]): able to decrease
- proliferation of YUMM1.1 cancer cells (YUMM1.1 cancer cells): effective in preventing proliferation
- proliferation of B16F10 cancer cells (B16F10 cancer cells): effective in preventing proliferation
- total number of CD8+ T cells in the tumor (B16F10 tumors): significantly decreased

From patent US20260224680A1, “COMPOSITIONS FOR INDUCING OR RESCUING GLYCOLYSIS AND METHODS OF USE THEREOF” (Arizona Board of Regents on behalf of Arizona State …, priority 2023, published 2026)
